Several values for one entry are separate records, joined by “and”; a condition that tells them apart may be missing. Equal entries are not always repeated.
Tests used:
Assay in all cases: Post-emergence/greenhouse herbicidal test
Type in all cases: in vivo
[1] = tested on: Abutilon theophrasti; conditions: post-emergence, about 3 weeks
Source text: (§1) Procarbazone- and flucarbazone-sodium were used as 70 WG formulation. Fenoxaprop-P-ethyl was used in a mixture with mefenpyr-diethyl (75 g of mefenpyr-diethyl/l) as Ralon® Super 69 EW. Cinidon-ethyl and florasulam and iodosufuron in a mixture with mefenpyr-diethyl were used in the form of the finished formulations Lotus® 200 EC, Primus® 50 SC and Hussar® 5 WG (15% mefenpyr-diethyl), respectively. Amicarbazone was used as 70 WG formulation.
(§2) In pre- and post-emergence experiments, the spray liquor is usually admixed with a surfactant (Renex 36), at a concentration of 0.1%.
(§3) Test plants are grown under controlled conditions (temperature and light).
(§4) Following the spray application, the plant containers are kept in a greenhouse under constant light and temperature conditions.
(§5) After about 3 weeks, the degree of damage to the plants is rated in % damage in comparison to the development of the untreated control.
(§6) 0% =no damage (like untreated control)
(§7) 100% =total destruction/damage

[2] = tested on: Alopecurus myosuroides; conditions: post-emergence, about 3 weeks
Source text: as §1, §2, §3, §4, §5, §6, §7

[3] = tested on: Amaranthus retroflexus; conditions: post-emergence, about 3 weeks
Source text: as §1, §2, §3, §4, §5, §6, §7

[4] = tested on: Avena fatua
Source text: as §1, §2, §3, §4, §5, §6, §7

[5] = tested on: Bromus secalinus
Source text: as §1, §2, §3, §4, §5, §6, §7

[6] = tested on: Cassia tora
Source text: as §1, §2, §3, §4, §5, §6, §7

[7] = tested on: Digitaria sanguinalis; conditions: post-emergence, about 3 weeks
Source text: as §1, §2, §3, §4, §5, §6, §7

[8] = tested on: Echinochloa crus-galli
Source text: as §1, §2, §3, §4, §5, §6, §7

[9] = tested on: Galium aparine; conditions: post-emergence, about 3 weeks
Source text: as §1, §2, §3, §4, §5, §6, §7

[10] = tested on: Lolium perenne; conditions: post-emergence, about 3 weeks
Source text: as §1, §2, §3, §4, §5, §6, §7

[11] = tested on: Matricaria inodora; conditions: 2 g of ai/ha, post-emergence, about 3 weeks
Source text: as §1, §2, §3, §4, §5, §6, §7

[12] = tested on: Polygonum convolvolus
Source text: as §1, §2, §3, §4, §5, §6, §7

[13] = tested on: Veronica persicaria; conditions: post-emergence, about 3 weeks
Source text: as §1, §2, §3, §4, §5, §6, §7

[14] = tested on: Viola arvensis; conditions: post-emergence, about 3 weeks
Source text: as §1, §2, §3, §4, §5, §6, §7

[15] = tested on: Xanthium strumarium; conditions: post-emergence, about 3 weeks
Source text: as §1, §2, §3, §4, §5, §6, §7

[16] = tested on: Setaria viridis
[17] = tested on: Cyperus esculentus; conditions: post-emergence, about 3 weeks
Source text: as §1, §2, §3, §4, §5, §6, §7

[18] = tested on: Eriochloa villosa; conditions: 15 g of ai/ha, post-emergence, about 3 weeks
Source text: as §1, §2, §3, §4, §5, §6, §7

[19] = tested on: Ipomoea hederacea; conditions: post-emergence, about 3 weeks
Source text: as §1, §2, §3, §4, §5, §6, §7

[20] = tested on: Solanum nigrum; conditions: 30 g of ai/ha, post-emergence, about 3 weeks
Source text: as §1, §2, §3, §4, §5, §6, §7

[21] = tested on: Stellaria media; conditions: post-emergence, about 3 weeks
Source text: as §1, §2, §3, §4, §5, §6, §7

[22] = 2 g of ai/ha, post-emergence, about 3 weeks
[23] = 4 g of ai/ha, post-emergence, about 3 weeks
[24] = 8 g of ai/ha, post-emergence, about 3 weeks
[25] = 15 g of ai/ha, post-emergence, about 3 weeks
[26] = 125 g of ai/ha, post-emergence, about 3 weeks
[27] = application rate 2 g ai/ha, iodosulfuron tested as Hussar (iodosulfuron 5% & mefenpyr 15%)
[28] = application rate 4 g ai/ha, iodosulfuron tested as Hussar (iodosulfuron 5% & mefenpyr 15%)
[29] = application rate 8 g ai/ha, iodosulfuron tested as Hussar (iodosulfuron 5% & mefenpyr 15%)
[30] = 30 g of ai/ha, post-emergence, about 3 weeks
[31] = 60 g of ai/ha, post-emergence, about 3 weeks

In the case of `COc1ncc(F)c2nc(S(=O)(=O)Nc3c(F)cccc3F)nn12` [Florasulam, N-(2,6-difluoro-phenyl)-8-fluoro-5-methoxy-[1,2,4]-triazolo-[1,5-c]-pyrimidine-2-sulphonamide], the Abutilon theophrasti observed ([1]; 2 g of ai/ha) is reported as 20%, the Abutilon theophrasti observed ([1]; 4 g of ai/ha) is reported as 30% and the Alopecurus myosuroides observed ([2]; 2 g of ai/ha) is reported as 0%. It also gave an Alopecurus myosuroides observed ([2]; 4 g of ai/ha) of 0%, an Amaranthus retroflexus observed ([3]; 2 g of ai/ha) of 70% and an Amaranthus retroflexus observed ([3]; 4 g of ai/ha) of 70%. It also gave an Avena fatua observed [4, 22] of 0%, an Avena fatua observed [4, 23] of 10% and an Avena fatua observed [4, 24] of 30%. The Avena fatua observed [4, 25] was 50%, the Bromus secalinus observed [5, 22] was 0% and the Bromus secalinus observed [5, 23] was 0%. For the same compound, the Cassia tora observed [6, 24] was 90%, the Cassia tora observed [6, 25] was 95% and the Digitaria sanguinalis observed ([7]; 2 g of ai/ha) was 0%. It also gave a Digitaria sanguinalis observed ([7]; 4 g of ai/ha) of 0%, an Echinochloa crus-galli observed [8, 22] of 10% and an Echinochloa crus-galli observed [8, 23] of 40%. It also gave a Galium aparine observed ([9]; 2 g of ai/ha) of 50%, a Galium aparine observed ([9]; 4 g of ai/ha) of 50% and a Lolium perenne observed ([10]; 2 g of ai/ha) of 0%. For the same compound, the Lolium perenne observed ([10]; 4 g of ai/ha) was 0%, the Lolium perenne observed ([10]; 8 g of ai/ha) was 20% and the Lolium perenne observed ([10]; 15 g of ai/ha) was 30%. The Matricaria inodora observed [11] was 70%, the Polygonum convolvolus observed [12, 24] was 95% and the Polygonum convolvolus observed [12, 25] was 95%. For the same compound, the Veronica persicaria observed ([13]; 2 g of ai/ha) was 0%, the Veronica persicaria observed ([13]; 4 g of ai/ha) was 0% and the Viola arvensis observed ([14]; 2 g of ai/ha) was 0%. It also gave a Viola arvensis observed ([14]; 4 g of ai/ha) of 0%, a Viola arvensis observed ([14]; 8 g of ai/ha) of 70% and a Xanthium strumarium observed ([15]; 2 g of ai/ha) of 40%. The Xanthium strumarium observed ([15]; 4 g of ai/ha) was 50%.
`CC(C)N(C(=O)COc1nnc(C(F)(F)F)s1)c1ccc(F)cc1` [Flufenacet, N-(4-fluorophenyl)-N-isopropyl-2-(5-trifluoromethyl-1,3,4-thiadiazol-2-yl-oxy)-acetamide] showed an Amaranthus retroflexus observed ([3]; 60 g of ai/ha) of 0%, an Amaranthus retroflexus observed ([3]; 125 g of ai/ha) of 0% and an Avena fatua observed [4, 26] of 70%. It also gave a Polygonum convolvolus observed [12, 26] of 0%.
Compound `COC(=O)c1ccc(I)cc1S(=O)(=O)NC(=O)Nc1nc(C)nc(OC)n1.[Na]` [Iodosufuron, N-(4-methoxy-6-methyl-1,3,5-triazin-2-yl)-N′-(5-iodo-2-methoxycarbonyl-phenylsulphonyl)-urea sodium salt] has an Avena fatua observed [4, 24] of 70%, an Avena fatua observed ([4]; Table B-62, application rate 2 g ai/ha, iodosulfuron tested as Hussar (iodosulfuron 5% & mefenpyr 15%)) of 10 and a Bromus secalinus observed [5, 27] of 0. It also gave a Bromus secalinus observed [5, 28] of 0, a Bromus secalinus observed [5, 29] of 0 and a Cassia tora observed [6, 29] of 80. The Echinochloa crus-galli observed [8, 27] was 20, the Polygonum convolvolus observed [12, 27] was 80 and the Setaria viridis observed [16, 28] was 0.
`CCCOc1nn(C(=O)NS(=O)(=O)c2ccccc2C(=O)OC)c(=O)n1C` [Procarbazone-sodium, 2-(2-methoxycarbonyl-phenylsulphonylaminocarbonyl)-4-methyl-5-n-propoxy-2,4-dihydro-3H-1,2,4-triazol-3-one] was tested, and the Abutilon theophrasti observed ([1]; 60 g of ai/ha) was 60%, the Alopecurus myosuroides observed ([2]; 15 g of ai/ha) was 60% and 80% and the Alopecurus myosuroides observed ([2]; 30 g of ai/ha) was 70% and 80%. For the same compound, the Alopecurus myosuroides observed ([2]; 60 g of ai/ha) was 70% and 90%, the Amaranthus retroflexus observed ([3]; 15 g of ai/ha) was 80% and 98% and the Amaranthus retroflexus observed ([3]; 30 g of ai/ha) was 90% and 98%. For the same compound, the Amaranthus retroflexus observed ([3]; 60 g of ai/ha) was 98%, the Avena fatua observed [4, 25] was 70% and 50% and 80% and the Avena fatua observed [4, 30] was 90% and 50%. For the same compound, the Avena fatua observed [4, 31] was 60%, the Bromus secalinus observed [5, 25] was 80% and 70% and the Bromus secalinus observed [5, 30] was 80%. For the same compound, the Bromus secalinus observed [5, 31] was 90%, the Bromus secalinus observed ([5]; application rate 15 g ai/ha) was 90 and the Bromus secalinus observed ([5]; application rate 30 g ai/ha) was 90. The Cassia tora observed [6, 25] was 50%, the Cassia tora observed [6, 31] was 30% and 50% and the Cyperus esculentus observed ([17]; 15 g of ai/ha) was 70%. It also gave a Cyperus esculentus observed ([17]; 30 g of ai/ha) of 80%, an Echinochloa crus-galli observed [8, 30] of 90% and an Echinochloa crus-galli observed [8, 31] of 90%. For the same compound, the Eriochloa villosa observed [18] was 0%, the Galium aparine observed ([9]; 15 g of ai/ha) was 20% and the Galium aparine observed ([9]; 30 g of ai/ha) was 30%. It also gave a Galium aparine observed ([9]; 60 g of ai/ha) of 40%, an Ipomoea hederacea observed ([19]; 15 g of ai/ha) of 60% and an Ipomoea hederacea observed ([19]; 30 g of ai/ha) of 70%. The Ipomoea hederacea observed ([19]; 60 g of ai/ha) was 70%, the Lolium perenne observed ([10]; 15 g of ai/ha) was 0% and the Lolium perenne observed ([10]; 30 g of ai/ha) was 30% and 20%. For the same compound, the Lolium perenne observed ([10]; 60 g of ai/ha) was 50%, the Polygonum convolvolus observed [12, 30] was 0% and the Polygonum convolvolus observed [12, 31] was 0%. The Polygonum convolvolus observed ([12]; application rate 15 g ai/ha) was 0, the Polygonum convolvolus observed ([12]; application rate 30 g ai/ha) was 0 and the Polygonum convolvolus observed ([12]; application rate 60 g ai/ha) was 0. It also gave a Solanum nigrum observed [20] of 70%, a Stellaria media observed ([21]; 15 g of ai/ha) of 50% and a Stellaria media observed ([21]; 30 g of ai/ha) of 60%. The Stellaria media observed ([21]; 60 g of ai/ha) was 70%, the Viola arvensis observed ([14]; 30 g of ai/ha) was 50% and 70% and the Viola arvensis observed ([14]; 60 g of ai/ha) was 80%. The Xanthium strumarium observed ([15]; 15 g of ai/ha) was 60%, the Xanthium strumarium observed ([15]; 30 g of ai/ha) was 70% and 60% and the Xanthium strumarium observed ([15]; 60 g of ai/ha) was 60%. It also gave a Setaria viridis observed ([16]; application rate 15 g ai/ha) of 0, a Setaria viridis observed ([16]; application rate 30 g ai/ha) of 0 and a Setaria viridis observed ([16]; application rate 60 g ai/ha) of 20.
